Measured values: ChEMBL document CHEMBL1154733, “Synthesis and in vitro opioid receptor functional antagonism of methyl-substituted analogues of (3R)-7-hydroxy-N-[(1S)-1-{[(3R,4R)-4-(3-hydroxyphenyl)-3,4-dimethyl-1-piperidinyl]methyl}-2-methylpropyl]-1,2,3,4-tetrahydro-3-isoquinolinecarboxamide (JDTic)” (J Med Chem, 2009)

Legend:
Homo sapiens [1] = species: Homo sapiens; assay: Ratio of Ke for human cloned delta opioid receptor to Ke for human cloned kappa opioid receptor
Homo sapiens [2] = species: Homo sapiens; assay: Ratio of Ke for human cloned mu opioid receptor to Ke for human cloned kappa opioid receptor
[3] = biological target: Delta-type opioid receptor (Homo sapiens) (UniProt P41143); assay: Antagonist activity at human cloned delta opioid receptor expressed in CHO cells assessed as inhibition of DPDPE-stimulated [35S]GTPgammaS binding; assay type: functional, cell-based
[4] = biological target: Mu-type opioid receptor (Homo sapiens) (UniProt P35372); assay: Antagonist activity at human cloned mu opioid receptor expressed in CHO cells assessed as inhibition of DAMGO-stimulated [35S]GTPgammaS binding; assay type: functional, cell-based
[5] = biological target: Kappa-type opioid receptor (Homo sapiens) (UniProt P41145); assay: Antagonist activity at human cloned kappa opioid receptor expressed in CHO cells assessed as inhibition of U69593-stimulated [35S]GTPgammaS binding; assay type: functional, cell-based
[6] = biological target: Kappa-type opioid receptor (Homo sapiens) (UniProt P41145); assay: Ratio of compound Ke to JDTic Ke for human cloned kappa opioid receptor expressed in CHO cells; assay type: cell-based
[7] = biological target: Mu-type opioid receptor (Homo sapiens) (UniProt P35372); assay: Ratio of JDTic Ke to compound Ke for human cloned mu opioid receptor expressed in CHO cells; assay type: cell-based

Delta-type opioid receptor (Homo sapiens), sequence (P41143 whole entry): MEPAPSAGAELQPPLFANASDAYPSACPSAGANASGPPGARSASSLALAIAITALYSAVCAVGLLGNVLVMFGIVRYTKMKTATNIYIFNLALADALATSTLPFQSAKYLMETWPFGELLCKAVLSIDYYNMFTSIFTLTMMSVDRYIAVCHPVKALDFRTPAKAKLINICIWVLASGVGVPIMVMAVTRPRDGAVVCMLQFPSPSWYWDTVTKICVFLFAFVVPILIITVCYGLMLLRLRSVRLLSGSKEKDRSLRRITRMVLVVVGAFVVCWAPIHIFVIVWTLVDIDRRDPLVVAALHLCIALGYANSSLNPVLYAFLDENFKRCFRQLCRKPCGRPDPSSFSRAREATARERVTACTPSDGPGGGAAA
Kappa-type opioid receptor (Homo sapiens), sequence (P41145 whole entry): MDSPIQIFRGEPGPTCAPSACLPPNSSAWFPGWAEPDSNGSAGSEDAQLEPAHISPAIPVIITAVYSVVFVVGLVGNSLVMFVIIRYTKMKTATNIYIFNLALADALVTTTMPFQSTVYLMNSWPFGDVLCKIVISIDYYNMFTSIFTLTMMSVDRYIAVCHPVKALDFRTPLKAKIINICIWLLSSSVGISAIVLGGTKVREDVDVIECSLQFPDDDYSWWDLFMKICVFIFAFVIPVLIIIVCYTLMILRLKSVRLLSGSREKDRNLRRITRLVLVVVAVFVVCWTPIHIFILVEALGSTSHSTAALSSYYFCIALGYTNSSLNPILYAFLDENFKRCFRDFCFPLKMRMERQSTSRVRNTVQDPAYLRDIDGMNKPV
Mu-type opioid receptor (Homo sapiens), sequence (P35372 whole entry): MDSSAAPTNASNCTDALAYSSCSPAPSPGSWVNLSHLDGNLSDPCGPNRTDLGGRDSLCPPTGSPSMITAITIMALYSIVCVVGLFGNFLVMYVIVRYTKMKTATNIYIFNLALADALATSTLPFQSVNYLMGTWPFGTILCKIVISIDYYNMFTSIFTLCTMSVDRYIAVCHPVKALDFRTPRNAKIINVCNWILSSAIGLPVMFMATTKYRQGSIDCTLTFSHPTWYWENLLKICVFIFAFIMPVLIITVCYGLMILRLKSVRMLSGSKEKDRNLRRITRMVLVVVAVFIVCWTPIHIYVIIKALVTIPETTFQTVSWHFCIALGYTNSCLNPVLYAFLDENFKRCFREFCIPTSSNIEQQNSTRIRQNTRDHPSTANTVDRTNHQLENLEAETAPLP

| SMILES | Ratio Ke (Homo sapiens [1]) | Ratio Ke (Homo sapiens [2]) | Ke [3] [nM] | Ke [4] [nM] | Ke [5] [nM] | Ratio Ke [6] | Ratio Ke [7] |
| --- | --- | --- | --- | --- | --- | --- | --- |
| CC(C)[C@@H](CN1CC[C@@](C)(c2cccc(O)c2)[C@@H](C)C1)NC(=O)[C@H]1Cc2ccc(O)cc2CN1 | 3830 | 1260 |  |  |  |  |  |
| CC[C@H](C)[C@@H](CN1CC[C@@](C)(c2cccc(O)c2)[C@@H](C)C1)NC(=O)[C@@]1(C)Cc2ccc(OC)cc2CN1 | 5 | 5 | 18.7 | 17.5 | 3.5 |  |  |
| COc1cccc([C@]2(C)CCN(C[C@@H](NC(=O)[C@H]3Cc4ccc(O)cc4CN3)C(C)C)C[C@@H]2C)c1 | 573 | 649 | 21.2 | 24 | 0.037 | 2 |  |
| COc1cccc([C@]2(C)CCN(C[C@@H](NC(=O)[C@@]3(C)Cc4ccc(OC)cc4CN3)C(C)C)C[C@@H]2C)c1 |  |  | > 10000 |  | 15.2 |  |  |
| COc1cccc([C@]2(C)CCN(C[C@@H](NC(=O)[C@H]3Cc4ccc(O)cc4CN3C)C(C)C)C[C@@H]2C)c1 | 535 | 204 | 2300 | 880 | 4.3 |  |  |
| CC(C)[C@@H](CN1CC[C@@](C)(c2cccc(O)c2)[C@@H](C)C1)NC(=O)[C@H]1Cc2ccc(O)cc2CN1C | 3070 | 1310 | 491 | 210 | 0.16 |  |  |
| CC[C@H](C)[C@@H](CN1CC[C@@](C)(c2cccc(OC)c2)[C@@H](C)C1)NC(=O)[C@H]1Cc2ccc(O)cc2CN1C |  | 180 | > 10000 | 360 | 2.03 |  |  |
| CC[C@H](C)[C@@H](CN1CC[C@@](C)(c2cccc(O)c2)[C@@H](C)C1)NC(=O)[C@H]1Cc2ccc(O)cc2CN1C | 1200 | 66 | 132 | 7.2 | 0.11 |  |  |
| CC[C@H](C)[C@@H](CN1CC[C@@](C)(c2cccc(OC)c2)[C@@H](C)C1)NC(=O)[C@H]1Cc2ccc(O)cc2CN1 |  |  |  | 5.1 | 0.96 |  |  |
| COc1ccc2c(c1)CN[C@@H](C(=O)N[C@H](CN1CC[C@@](C)(c3cccc(O)c3)[C@@H](C)C1)C(C)C)C2 | 1970 | 857 |  |  |  | 3 |  |
| CC(C)[C@@H](CN1CC[C@@](C)(c2cccc(O)c2)[C@@H](C)C1)NC(=O)[C@@]1(C)Cc2ccc(O)cc2CN1 | 28500 | 120 | 854 | 3.6 | 0.03 |  |  |
| CC[C@H](C)[C@@H](CN1CC[C@@](C)(c2cccc(OC)c2)[C@@H](C)C1)NC(=O)[C@@]1(C)Cc2ccc(O)cc2CN1 |  |  | 2100 |  | 0.52 |  |  |
| COc1cccc([C@]2(C)CCN(C[C@@H](NC(=O)[C@@]3(C)Cc4ccc(O)cc4CN3)C(C)C)C[C@@H]2C)c1 |  |  | 2200 |  | 0.26 |  |  |
| COc1ccc2c(c1)CN(C)[C@@](C)(C(=O)N[C@H](CN1CC[C@@](C)(c3cccc(O)c3)[C@@H](C)C1)C(C)C)C2 |  |  |  | 7 | 2.2 |  |  |
| CC[C@H](C)[C@@H](CN1CC[C@@](C)(c2cccc(O)c2)[C@@H](C)C1)NC(=O)[C@@]1(C)Cc2ccc(O)cc2CN1 |  |  |  | 8.7 | 0.11 |  |  |
| COc1ccc2c(c1)CN[C@@](C)(C(=O)N[C@H](CN1CC[C@@](C)(c3cccc(O)c3)[C@@H](C)C1)C(C)C)C2 | 40 | 4 | 36.8 | 3.8 | 0.93 |  |  |
| CC[C@H](C)[C@@H](CN1CC[C@@](C)(c2cccc(O)c2)[C@@H](C)C1)NC(=O)[C@H]1Cc2ccc(O)cc2CN1 | 800 | 100 |  |  |  |  | 8 |
